Key:
TGF-beta = TGF-beta in vessel wall of apoE knockout mice (quantitative immunofluorescence); format: in vivo, mouse; details: 87 days treatment
Method: No. 08/478,936, filed Jun. 7, 1995, which is incorporated by reference herein. […] Sigma) and fixed in ice-cold acetone for 90 seconds, air-dried and stored at -20° C. until assayed. […] R&D Systems), see Mosedale et al., Histochem. Cytochem., 44, 1043 (1996), the disclosure of which is incorporated by reference herein. Active TGF-beta wag measured by quantitative immunofluorescence microscopy using the recombinant extracellular domain of the type II TGF-beta receptor […]) labeled with fluorescein.

[1] = test system: smooth muscle α-actin (SM-α-actin); experiment: SM-alpha-actin in vessel wall (quantitative immunofluorescence); format: in vivo, mouse; details: 87 days treatment
Method: (§1) SM-α-actin and osteopontin were measured by quantitative immunofluorescence microscopy using specific primary antibodies A-6125 (Sigma) and MBP111Bio (NIH Developmental Studies Hybridoma Bank), respectively.

osteopontin = experiment: Osteopontin in vessel wall (quantitative immunofluorescence); format: in vivo, mouse; details: 87 days treatment
Method: as §1

[2] = Serum lipid and lipoprotein profile of apoE knockout mice; format: in vivo, mouse
Method: The effect of each treatment on the lipid profile of each group of mice was determined by measuring the cholesterol and triglyceride. Blood from a terminal bleed was collected in a polypropylene tube, allowed to clot at room temperature for 2 hours and then spun (1,000×g; 5 minutes). The serum supernatant was aliquoted and stored at −20° C. until assayed. Total cholesterol and total triglycerides were determined for each mouse using the cholesterol oxidase and glycerol kinase UV end-point enzymatic methods respectively (Sigma Diagnostics).

[3] = Simvastatin for 16 weeks in patients with high cholesterol; format: in vivo, human; details: six time points
Method: Twenty six patients with high cholesterol were administered simnvastatin for 16 weeks. Blood was collected at six times points during the 16 weeks and analyzed for TGF-beta levels.

apoE knockout mice = experiment: Lipid lesion development in aortic sinus of apoE knockout mice (Oil Red O)
Method: To determine the efficacy of combination therapy, and to provide evidence for synergism between aspirin and fish oil, 8-week-old female apoE knockout mice were fed aspirin or fish oil, or both, to assess the cardioprotective effects of modulating different components of the TGF-beta pathway.
Group A mice (n=10) were sacrificed at day 0. Group B mice (n=10) were fed normal chow. […] Group D mice (n=10) were fed chow containing 33 mg/kg/day fish oil (200 μg Pulse cod liver oil/g food, Seven Seas Ltd., which contains 0.9 g eicosapentaenoic acid (EPA), and 0.3 g docosahexaenoic acid (DHA)) and 3 mg/kg/day aspirin dissolved in water. Group E mice (n=10) were fed chow containing 33 mg/kg/day fish oil. Group F mice (n=10) were fed chow containing Zocor (simvastatin; Zocor tablets, Merck, Sharpe & Dohme) at 400 μg/kg/day (2 μg/g food).
Groups B-F were fed these regimens for 87 days. All mice were weighed daily for the first week and weekly thereafter. Food and water consumption over a 24 hour period were measured daily for the first 7 days and weekly thereafter.
After 87 days, mice in groups B-F were fasted overnight and then sacrificed. Serum, heart, lungs and aorta samples were collected at the time of sacrifice. The heart, lungs and aorta were removed from each mouse and rinsed in PBS, dabbed dry on tissue and embedded in Cryo-M-bed embedding medium (Bright Instruments, Huntington, U.K.) before snap freezing in liquid nitrogen. Frozen sections (4 μm thickness) of the aortic sinus region were prepared from the heart/lung/aorta blocks according to the sectioning strategy of Paigen et al. (Arteriosclerosis, 10, 316 (1990)). Sections on 5% gelatin-coated slides were stained for neutral lipid by the Oil Red O technique and counter-stained with fast green (Grainger et al., Nature Med., 1, 1067 (1995)).
The development of lipid-filled vascular lesions was determined by the quantitation of oil red O staining for neutral lipid deposited in the aortic sinus region. The area of lipid accumulation was measured using a calibrated microscope eye-piece, such that lipid droplets<50 μm^2 were ignored and contiguous regions of lipid staining>500 μm in area were classified as lesions.

[4] = single measurement on pooled blood of the group

Question: With CCC(C)(C)C(=O)O[C@H]1C[C@@H](C)C=C2C=C[C@H](C)[C@H](CC[C@@H]3C[C@@H](O)CC(=O)O3)[C@H]21 [Zocor, simvastatin] as the compound, how does the “Active + Latent TGF-beta in Vessel Wall” value (TGF-beta) read?
Answer: Its value is 44 ± 5.

Question: And the “Active TGF-beta in Vessel Wall” value (TGF-beta)?
Answer: Its value is 20 ± 3.

Question: And the “SMα Actin” value [1]?
Answer: The value was 114 ± 19.

Question: What about the Osteopontin (osteopontin) of the same compound?
Answer: Its Osteopontin is 73 ± 8.

Question: What about the Total cholesterol ([2]; serum, 87 days treatment) of the same compound?
Answer: Its Total cholesterol is 224 ± 29 mg/dL.

Question: And the Total triglyceride ([2]; serum, 87 days treatment)?
Answer: The Total triglyceride was 266 ± 14 mg/dL.

Question: What about the HDL-cholesterol [2, 4] of the same compound?
Answer: The HDL-cholesterol was 35 mg/dL.

Question: What about the LDL-cholesterol [2, 4] of the same compound?
Answer: Its LDL-cholesterol is 54 mg/dL.

Question: And the VLDL-cholesterol [2, 4]?
Answer: Its VLDL-cholesterol is 158 mg/dL.

Question: What about the “change in LDL-cholesterol vs control mice” value ([2]; three months) of the same compound?
Answer: Its value is −41%.

Question: What about the “change in VLDL-cholesterol vs control mice” value ([2]; three months) of the same compound?
Answer: The value was −14%.

Question: What about the “change in total plasma cholesterol vs control mice” value ([2]; three months) of the same compound?
Answer: The value was −27%.

Question: And the “reduction in total plasma triglyceride concentration” value ([2]; three months)?
Answer: Its value is −12%.

Question: What about the “effect on TGF-beta levels” value [3] of the same compound?
Answer: Its value is “no effect”.

Question: And the “change in lesion development / lesion formation vs untreated mice” value (apoE knockout mice; 3 month treatment)?
Answer: The value was −7%.

Question: And the “Number of Lesions” value (apoE knockout mice; 87 days treatment)?
Answer: Its value is 8.1 ± 0.4.

Question: What about the “Lesion Area (μm^2 staining)” value (apoE knockout mice; 87 days treatment, per mouse, n=10) of the same compound?
Answer: Its value is 25,777 ± 1368 μm^2.
